In patent publication US20130045952A1, “ABA Receptor Agonists for Increased Plant Stress Resistance” (Van Andel Research Institute, priority 2011, published 2013):

Experiments:
Assay type in all cases: biochemical
His6-PYR1 / biotin-PP2C = molecular target: T1, His6-PYR1 / biotin-PP2C (Arabidopsis thaliana, UniProt O49686); test: AlphaScreen luminescence proximity assay, PYR1-PP2C interaction; details: 100 nM His6-PYR1, 100 nM biotin-PP2C, 100 μM agonist; normalized against a pyrabactin control
T1 construct: made in house; host or cells: E. coli is stated for PYL1, PYL2 and the PP2Cs, not expressly for PYR1
T1 sequence (O49686 1-191): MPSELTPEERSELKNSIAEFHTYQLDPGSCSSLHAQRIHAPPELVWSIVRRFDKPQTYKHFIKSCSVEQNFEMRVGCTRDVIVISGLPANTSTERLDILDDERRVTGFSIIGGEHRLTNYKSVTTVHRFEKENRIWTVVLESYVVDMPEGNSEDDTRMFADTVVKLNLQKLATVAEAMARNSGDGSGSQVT
Description: (§1) Mutant proteins were expressed as H6GST-fusion proteins and purified by glutathione sepharose chromatography. Protein-protein interactions were determined by luminescence proximity AlphaScreen assay. Biotinylated PP2C proteins for the luminescence proximity assay were generated by in vivo biotinylation of avitag-PP2C fusion proteins. PP2C phosphatase activity was measured by phosphate release from a SnRK2.6 phosphoprotein.
(§2) Interactions between PYR/PYL and PP2Cs were assessed by luminescence-proximity AlphaScreen technology (Perkin Elmer). Briefly, biotinylated PP2Cs were attached to streptavidin-coated donor beads, and H6-tagged PYR/PYL receptors were attached to nickel-chelated acceptor beads. The donor and acceptor beads were brought into proximity by the interactions between PYR/PYLs and PP2Cs, which were measured with and without ligands. When excited by a laser beam of 680 nm, the donor beam emits singlet oxygen that activates thioxene derivatives in the acceptor beads, which releases photons of 520-620 nm as the binding signal. The experiments were conducted with 100 nM of PP2Cs and PYR/PYL proteins in the presence of 5 ug/ml donor and acceptor beads in a buffer of 50 mM MOPS, pH7.4, 50 mM NaF, […], and 0.1 mg/ml bovine serum albumin. The results were based on an average of three experiments with standard errors typically less than 10% of the measurements.
(§3) Values were determined in different experiments and normalized against a pyrabactin control. Blank spaces mean no experimental data is available. Key (photon counts (binding signal units) in Alphascreen luminescence proximity assay): “+++ is >75,000; ++ is 25,000−75,000; + is <25,000.

His6-PYL2 / biotin-PP2C = molecular target: T2, His6-PYL2 / biotin-PP2C (Arabidopsis thaliana, UniProt O80992); test: AlphaScreen luminescence proximity assay, PYL2-PP2C interaction; details: 100 nM His6-PYL2, 100 nM biotin-PP2C, 100 μM agonist; normalized against a pyrabactin control
T2 construct: PYL2 (residues 14-188), and HAB1 (residues 172-511) were prepared as recombinant proteins in E. coli; made in house; host or cells: E. coli
T2 sequence (O80992 14-188): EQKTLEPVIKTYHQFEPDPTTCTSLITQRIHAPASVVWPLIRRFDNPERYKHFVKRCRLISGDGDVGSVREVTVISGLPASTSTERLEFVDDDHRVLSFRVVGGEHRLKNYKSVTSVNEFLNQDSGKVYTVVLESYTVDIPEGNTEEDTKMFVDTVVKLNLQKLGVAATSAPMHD
Description: as §1, §2, §3

His6-PYL3 / biotin-PP2C = molecular target: T3, His6-PYL3 / biotin-PP2C (Arabidopsis thaliana, UniProt Q9SSM7); test: AlphaScreen luminescence proximity assay, PYL3-PP2C interaction; details: 100 nM His6-PYL3, 100 nM biotin-PP2C, 100 μM agonist; normalized against a pyrabactin control
T3 construct: made in house; host or cells: not expressly stated for PYL3
T3 sequence (Q9SSM7 1-209): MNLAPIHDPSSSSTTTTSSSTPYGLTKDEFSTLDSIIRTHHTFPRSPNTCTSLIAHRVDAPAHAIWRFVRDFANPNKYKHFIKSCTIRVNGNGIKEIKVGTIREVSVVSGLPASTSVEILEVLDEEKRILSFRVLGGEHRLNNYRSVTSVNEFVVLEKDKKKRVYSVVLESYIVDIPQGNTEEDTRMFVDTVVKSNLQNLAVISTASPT
Description: as §1, §2, §3

His6-PYL1 / biotin-PP2C = molecular target: T4, His6-PYL1 / biotin-PP2C (Arabidopsis thaliana, UniProt Q8VZS8); test: AlphaScreen luminescence proximity assay, PYL1-PP2C interaction; details: 100 nM His6-PYL1, 100 nM biotin-PP2C, 100 μM agonist; normalized against a pyrabactin control
T4 construct: PYL1 (residues 36-211), PYL2 (residues 14-188), and HAB1 (residues 172-511) were prepared as recombinant proteins in E. coli; made in house; host or cells: E. coli
T4 sequence (Q8VZS8 36-211): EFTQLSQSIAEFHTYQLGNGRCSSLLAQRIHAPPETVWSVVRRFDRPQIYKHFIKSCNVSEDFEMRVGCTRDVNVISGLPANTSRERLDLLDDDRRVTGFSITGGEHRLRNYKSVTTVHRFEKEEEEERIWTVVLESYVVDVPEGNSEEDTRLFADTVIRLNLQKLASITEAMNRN
Description: as §1, §2, §3

Structure (SMILES) | Stimulation of the interaction between PYR1 and PP2C (binding signal) (His6-PYR1 / biotin-PP2C) | Stimulation of the interaction between PYL2 and PP2C (binding signal) (His6-PYL2 / biotin-PP2C) | Stimulation of the interaction between PYL3 and PP2C (binding signal) (His6-PYL3 / biotin-PP2C) | Stimulation of the interaction between PYL1 and PP2C (binding signal) (His6-PYL1 / biotin-PP2C)
CCCCOc1cccc(C(=O)NC(=S)Nc2ccc(S(N)(=O)=O)cc2)c1 [Compound 9] | + (+ is <25,000) | + (+ is <25,000) | + (+ is <25,000) | 
CC1(C)CC(=O)C(/C=N/CCc2ccc(S(N)(=O)=O)cc2)=C(O)C1 [Compound 10] | + (+ is <25,000) | + (+ is <25,000) | + (+ is <25,000) | 
O=S(=O)(NC[C@@H]1CCCO1)c1ccc(Br)c2ccccc12 [Compound 12] | +++ (+++ is >75,000) |  | +++ (+++ is >75,000) | 
CCCN(CCC)C(=O)[C@@H](CCC(=O)O)NS(=O)(=O)c1ccc(C)cc1 [Compound 13] | + (+ is <25,000) |  |  | 
Cc1ccc(C(=O)O)cc1NC(=S)NC(=O)c1ccccc1Cl [Compound 14] | + (+ is <25,000) | + (+ is <25,000) | + (+ is <25,000) | 
CC(=O)c1cccc(N/C=C/C(=O)c2ccc(Cl)c(Cl)c2)c1 [Compound 15] | + (+ is <25,000) | ++ (++ is 25,000−75,000) | ++ (++ is 25,000−75,000) | + (+ is <25,000)
